Test results: patent US7452997B2 (priority 2004, dated 2008)
Where two headings read alike, the source gives them in different places.

Legend:
[1] = target: T1, human CB1 receptor (Homo sapiens, UniProt P21554); assay: biochemical; format: binding
T1 construct: expressed in transfected cells; host or cells: SK-N-MC cells, stably transfected with pcDNA3 CB-1 (human); semi-purified membrane pellet
In short: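 Membranes from SK-N-MC cells stably expressing human CB1, incubated 90 minutes at 30° C in Tris-HCl buffer with MgCl2, EDTA and fatty acid free BSA, pH 7.5. Bound counts collected by filtration and scintillation counting; IC50 from linear regression over varying compound concentrations.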

[2] = target: human CB2 receptor (Homo sapiens, UniProt P34972); assay: Binding assay, cannabinoid CB2 receptor ([3H]-CP-55,940 displacement); conditions: SK-N-MC cell membranes, radioligand CP-55,940 0.2 nM
In short: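 Membranes from SK-N-MC cells stably expressing human CB2, incubated with test compound and 0.2 nM [3H]-CP-55,940 for 90 min at 30 °C in Tris buffer pH 7.5 with fatty-acid-free BSA. Nonspecific binding defined with 10 uM WIN 55,212; filtration and scintillation counting, IC50 by linear regression.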

[3] = Cannabinoid CB2 Receptor Binding IC50, human CB2 receptor
[4] = human CB1 receptor, SK-N-MC cell membranes, radioligand CP-55,940 0.2 nM, read-out: Cannabinoid CB1 Receptor Binding IC50

T1 sequence (P21554 whole entry): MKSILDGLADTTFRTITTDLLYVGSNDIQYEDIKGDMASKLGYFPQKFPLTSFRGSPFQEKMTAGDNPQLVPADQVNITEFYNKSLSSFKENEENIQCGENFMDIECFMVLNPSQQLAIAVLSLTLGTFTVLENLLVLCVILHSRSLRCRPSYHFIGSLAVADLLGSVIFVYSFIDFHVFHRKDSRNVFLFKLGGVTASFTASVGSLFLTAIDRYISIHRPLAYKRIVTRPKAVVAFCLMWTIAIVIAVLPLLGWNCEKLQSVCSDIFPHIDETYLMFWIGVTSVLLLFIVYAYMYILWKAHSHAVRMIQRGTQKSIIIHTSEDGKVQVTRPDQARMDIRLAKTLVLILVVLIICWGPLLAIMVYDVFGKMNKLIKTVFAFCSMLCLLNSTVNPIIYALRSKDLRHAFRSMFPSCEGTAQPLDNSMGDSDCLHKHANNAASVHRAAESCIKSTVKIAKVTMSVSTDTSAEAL
human CB2 receptor, sequence (P34972 whole entry): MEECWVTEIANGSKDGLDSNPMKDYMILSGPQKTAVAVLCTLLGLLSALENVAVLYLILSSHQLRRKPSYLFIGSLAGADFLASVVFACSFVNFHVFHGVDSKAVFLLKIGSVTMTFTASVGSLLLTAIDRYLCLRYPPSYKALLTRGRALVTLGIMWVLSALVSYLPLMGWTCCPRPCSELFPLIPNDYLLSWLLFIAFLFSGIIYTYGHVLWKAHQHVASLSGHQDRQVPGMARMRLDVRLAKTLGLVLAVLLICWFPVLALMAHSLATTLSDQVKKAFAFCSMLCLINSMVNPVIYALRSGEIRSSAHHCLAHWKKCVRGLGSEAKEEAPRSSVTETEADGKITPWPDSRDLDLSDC

Row | Structure (SMILES) | IC50 [1] [µM] | IC50 [2, 3] [µM] | IC50 [1, 4] [µM] | IC50 ([2]; human CB2 receptor, read-out: Cannabinoid CB2 Receptor Binding IC50) [µM]
1 | C[C@H](NC(=O)c1nn(C2CCCCC2)c2c1CCCC2)c1ccccc1 [compound 196] | 0.125 | 0.12 |  | 
2 | C[C@@H](NC(=O)c1nn(C2CCCCC2)c2c1CCCC2)c1ccccc1 [compound 197] | 0.98 | 0.8 |  | 
3 | C[C@@H](NC(=O)c1nn(Cc2ccccc2)c2c1CCCC2)C1CCCCC1 [compound 198] | 0.1 | 0.0057 |  | 
4 | C[C@@H](NC(=O)c1nn(Cc2ccccc2)c2c1CCCC2)c1ccccc1 [compound 199] | 0.019 | 0.01 |  | 
5 | C[C@H](NC(=O)c1nn(Cc2ccccc2)c2c1CCCC2)c1ccccc1 [compound 200] | 0.008 | 0.001 |  | 
6 | C[C@H](NC(=O)c1nn(Cc2ccccc2)c2c1CCCC2)C1CCCCC1 [compound 201] | 0.0017 | 0.002 |  | 
7 | CC12CCC(C1)C(C)(C)[C@H]2NC(=O)c1nn(-c2ccc(F)cc2)c2c1CCCC2 (stereo partly drawn) [compound 202] | 0.115 | 0.0045 |  | 
8 | CCN(C(=O)c1nn(C2CCCCC2)c2c1CCCC2)[C@H](C)C1CCCCC1 [compound 203] | 0.59 | 0.24 |  | 
9 | CC[C@@H](NC(=O)c1nn(C2CCCCC2)c2c1CCCC2)c1ccccc1 [compound 204] | 0.8 | 0.01 |  | 
10 | CC12CCC(C1)C(C)(C)C2NC(=O)Nc1nn(C2CCCCC2)c2c1CCCC2 (stereo not drawn) [compound 205] | 1.58 | 0.07 |  | 
11 | CCOC(=O)[C@@H]1C2C=CC(C2)[C@@H]1NC(=O)c1nn(Cc2ccccc2)c2c1CCCC2 (stereo partly drawn) [compound 206] | 0.097 | 0.0141 |  | 
12 | CCOC(=O)[C@H]1CCc2c(c(C(=O)NC3C4CC5CC(C4)CC3C5)nn2Cc2ccccc2)C1 (stereo partly drawn) [compound 210] | 0.335 | 0.008 |  | 
13 | C[C@H](NC(=O)c1nn(C2CCCCC2)c2c1CCCC2)C12CC3CC(CC(C3)C1)C2 [compound 213] | 0.95 | 0.2 |  | 
14 | C[C@@H]1[C@@H](NC(=O)c2nn(C3CCCCC3)c3c2CCCC3)C[C@H]2C[C@@H]1C2(C)C [compound 216] | 2.8 | 0.07 |  | 
15 | CCOC(=O)C1CCc2nn(C3CCCCC3)c(C(=O)NC3C4CC5CC(C4)CC3C5)c2C1 (stereo not drawn) [compound 221] | 3.29 | 0.46 |  | 
16 | CC(NC(=O)c1nn(C2CCCCC2)c2c1CC(C(N)=O)CC2)C12CC3CC(CC(C3)C1)C2 (stereo not drawn) [compound 224] | 1.5 | 1.2 |  | 
17 | CCOC(=O)C1CCc2nn(Cc3ccccc3)c(C(=O)NC34CC5CC(CC3C5)C4)c2C1 (stereo not drawn) [compound 227] | 2.77 | 1.15 |  | 
18 | CCOC(=O)C1CCc2c(C(=O)NC3C4CC5CC(C4)CC3C5)nn(Cc3ccccc3)c2C1 (stereo not drawn) [compound 230] | 0.01 | 0.001 |  | 
19 | CC(C)(C)OC(=O)C1CCc2c(c(C(=O)NC3C4CC5CC(C4)CC3C5)nn2C2CCCCC2)C1 (stereo not drawn) [compound 233] | 1.6 | 0.88 |  | 
20 | CCC(NC(=O)c1nn(C2CCCCC2)c2c1CCCC2)C1CCCCC1 (stereo not drawn) [compound 234] | 0.23 | 0.01 |  | 
21 | CN(C)C(=O)C1CCc2c(c(C(=O)NC3C4(C)CCC(C4)C3(C)C)nn2C2CCCCC2)C1 (stereo not drawn) [compound 235] | 3.6 | 1.4 |  | 
22 | COc1ccccc1CCNC(=O)c1nn(C2CCCCC2)c2c1CCCC2 [compound 236] | 25.4 | 0.94 |  | 
23 | COc1ccccc1CCNC(=O)c1nn(Cc2ccccc2)c2c1CCCC2 [compound 237] | 0.89 | 0.151 |  | 
24 | COc1ccccc1CCNC(=O)c1nn(-c2ccccc2)c2c1CCCC2 [compound 238] |  |  | 25.1 | 3.72

Row | Structure (SMILES) | IC50 [1] [µM] | IC50 [2, 3] [µM] | IC50 [1, 4] [µM] | IC50 ([2]; human CB2 receptor, read-out: Cannabinoid CB2 Receptor Binding IC50) [µM]
25 | CC(c1ccccc1)n1nc(C(=O)NCC2CCCCC2)c2c1CCCC2 (stereo not drawn) [compound 242] | 0.3 | 1.6 |  | 
26 | CC(c1ccccc1)n1nc(C(=O)NC2C3CC4CC(C3)CC2C4)c2c1CCCC2 (stereo not drawn) [compound 243] | 0.13 | 0.004 |  | 
27 | CC(c1ccccc1)n1nc(C(=O)NC23CC4CC(CC(C4)C2)C3)c2c1CCCC2 (stereo not drawn) [compound 244] | 0.3 | 0.079 |  | 
28 | CC1CCCCC1NC(=O)c1nn(C2CCCCC2)c2c1CCCC2 (stereo not drawn) [compound 245] | 0.02 | 0.002 |  | 
29 | CC(NC(=O)c1nn(C2CCCCC2)c2c1CCCC2)C1CCCCCC1 (stereo not drawn) [compound 246] | 2.27 | 0.09 |  | 
30 | CC(NC(=O)c1nn(C2CCCCC2)c2c1CCCC2)C1CCC1 (stereo not drawn) [compound 247] | 0.26 | 0.047 |  | 
31 | CC(NC(=O)c1nn(C2CCCCC2)c2c1CCCC2)[C@H]1CC[C@H](C)CC1 (stereo partly drawn) [compound 248] |  | 0.02 | 0.16 | 
32 | CC(c1ccccc1)n1nc(C(=O)NC2C3(C)CCC(C3)C2(C)C)c2c1CCCC2 (stereo not drawn) [compound 250] | 0.07 | 0.0056 |  | 
33 | C[C@H]1C(NC(=O)c2nn(C3CCCCC3)c3c2CCCC3)C[C@@H]2C[C@H]1C2(C)C (stereo partly drawn) [compound 252] | 0.04 | 0.048 |  | 
34 | CC12CCC(C1)C(C)(C)C2NC(=O)c1nn(Cc2ccccc2)c2c1CCCC2c1ccccc1 (stereo not drawn) [compound 265] | 0.096 | 0.041 |  | 
35 | CC(NC(=O)c1nn(Cc2ccccc2)c2c1CCCC2c1ccccc1)C1CCCCC1 (stereo not drawn) [compound 267] | 0.15 | 0.27 |  | 
36 | CCOC(=O)[C@@H]1CCCC[C@H]1NC(=O)c1nn(C2CCCCC2)c2c1CCCC2 [compound 269] | 0.191 | 0.0386 |  | 
37 | CCOC(=O)[C@@H]1CCCC[C@@H]1NC(=O)c1c2c(nn1Cc1ccccc1)CCCC2 [compound 270] | 3.1 | 1.8 |  | 
38 | CCOC(=O)[C@H]1CCCC[C@@H]1NC(=O)c1c2c(nn1Cc1ccccc1)CCCC2 [compound 271] | 6.2 | 2.6 |  | 
39 | CCOC(=O)[C@@H]1CCCC[C@H]1NC(=O)c1nn(Cc2ccccc2)c2c1CCCC2 [compound 272] | 0.086 | 0.07 |  | 
40 | CCOC(=O)[C@@H]1C2CCC(C2)[C@@H]1NC(=O)c1c2c(nn1Cc1ccccc1)CCCC2 (stereo partly drawn) [compound 273] | 1.59 | 0.414 |  | 
41 | CCOC(=O)[C@@H]1C2CCC(C2)[C@@H]1NC(=O)c1nn(Cc2ccccc2)c2c1CCCC2 (stereo partly drawn) [compound 274] | 0.0187 | 0.0016 |  | 
42 | CCOC(=O)[C@H]1C2C=CC(C2)[C@H]1NC(=O)c1c2c(nn1Cc1ccccc1)CCCC2 (stereo partly drawn) [compound 275] | 0.323 | 1.3 |  | 
43 | CCOC(=O)[C@H]1C2C=CC(C2)[C@H]1NC(=O)c1nn(Cc2ccccc2)c2c1CCCC2 (stereo partly drawn) [compound 276] | 0.135 | 0.25 |  | 
44 | CCOC(=O)[C@@H]1C2C=CC(C2)[C@@H]1NC(=O)c1c2c(nn1Cc1ccccc1)CCCC2 (stereo partly drawn) [compound 277] | 1.3 | 3.3 |  | 
45 | CCOC(=O)[C@H]1C2C=CC(C2)[C@H]1NC(=O)c1nn(C2CCCCC2)c2c1CCCC2 (stereo partly drawn) [compound 279] | 3.8 | 0.83 |  | 
46 | CCOC(=O)[C@@H]1C2C=CC(C2)[C@@H]1NC(=O)c1nn(C2CCCCC2)c2c1CCCC2 (stereo partly drawn) [compound 280] | 3.6 | 0.679 |  | 
47 | CCOC(=O)[C@H]1C2CCC(C2)[C@H]1NC(=O)C(C)(C)Cc1nn(C2CCCCC2)c2c1CCCC2 (stereo partly drawn) [compound 281] | 19.7 | 16.5 |  | 
48 | CCOC(=O)[C@H]1C2CCC(C2)[C@H]1NC(=O)c1nn(C2CCCCC2)c2c1CCCC2OC (stereo partly drawn) [compound 282] | 11.8 | 3.8 |  | 
